# Data from patent publication US20140030289A1, “COMPOSITIONS COMPRISING BETA-CARYOPHYLLENE AND METHODS OF UTILIZING THE SAME” (priority 2011, published 2014).
# Columns and labels:
# caspase-3 [1] = test: Caspase-3 cellular activity assay, MoFir cells; assay type: cell-based, human
# Procedure: FIG. 4. is a bar graph showing the apoptogenic effects of β-Caryophyllene on two tumor cell lines. Enzymatic activity of different cell lines incubated with β-Caryophyllene (2.4e^−4 μM) for 2 h. X axis represents the time of the enzymatic reaction in vitro in minutes.
# FIG. 5. is a bar graph showing the apoptogenic effects of β-Caryophyllene on two tumor cell lines. […] Measurements were taken following 1020 min of enzymatic reaction in vitro. Pre-incubation with caspase-3 inhibitor (DEVD-CHO) eliminated any development of caspase-3 activity.
# Caspase-3 cellular activity assay was carried out according to the manufacturer's instructions. For measuring specific inhibition by Ac-DEVD-CHO, cell extracts were pre-incubated with the inhibitor (0.05 μM) for 10 minutes before the addition of the substrate. […] Cellular extracts were prepared and then caspase-3 activity was measured.
# caspase-3 [2] = test: Caspase-3 cellular activity assay, BS-24-1 cells; assay type: cell-based, mouse
# Epstein-Barr virus = test: In vivo EBV animal model (humanized mouse or rabbit); settings: 5.0, 10 or 20 mg/kg, 4 consecutive days, i.p. or within food or drinking water
# Procedure: Studies evaluating the effect of C. gileadensis extract and β-caryophyllene in an in vivo animal model are performed using the humanized mouse animal model described in Sato et al., 2011 (“A novel animal model of Epstein-Barr virus-associated hemophagocytic lymphohistiocytosis in humanized mice” Blood, 2011 May 26; 117(21):5663-73, incorporated herein by reference in its entirety) or using the rabbit model described in Takashima, 2008 (“A new animal model for primary and persistent Epstein-Barr virus infection: human EBV-infected rabbit characteristics determined using sequential imaging and pathological analysis” J Med. Virol. 2008 March; 80(3):455-66, incorporated herein by reference in its entirety). C. gileadensis extract and β-caryophyllene are supplied in balanced salt solution containing 12% Tween 80 (pH 7.4) and diluted immediately before use in appropriate concentrations. Doses of 5.0, 10 or 20 mg/kg are administered for 4 consecutive days to control and EBV groups (eight animals/group) by i.p. injection of 0.1 ml per mouse or within the food or drinking water. Both C. gileadensis extract and β-caryophyllene are found to prevent EBV-induced death, viremia, leukocytosis, IFN-γ cytokinenemia, normocytic anemia, and thrombocytopenia, and increase survival time
# Topoisomerase I = molecular target: T1, Topoisomerase I (Homo sapiens, UniProt P11387); test: Topoisomerase I activity; assay type: biochemical
# T1 sequence (P11387 1-765): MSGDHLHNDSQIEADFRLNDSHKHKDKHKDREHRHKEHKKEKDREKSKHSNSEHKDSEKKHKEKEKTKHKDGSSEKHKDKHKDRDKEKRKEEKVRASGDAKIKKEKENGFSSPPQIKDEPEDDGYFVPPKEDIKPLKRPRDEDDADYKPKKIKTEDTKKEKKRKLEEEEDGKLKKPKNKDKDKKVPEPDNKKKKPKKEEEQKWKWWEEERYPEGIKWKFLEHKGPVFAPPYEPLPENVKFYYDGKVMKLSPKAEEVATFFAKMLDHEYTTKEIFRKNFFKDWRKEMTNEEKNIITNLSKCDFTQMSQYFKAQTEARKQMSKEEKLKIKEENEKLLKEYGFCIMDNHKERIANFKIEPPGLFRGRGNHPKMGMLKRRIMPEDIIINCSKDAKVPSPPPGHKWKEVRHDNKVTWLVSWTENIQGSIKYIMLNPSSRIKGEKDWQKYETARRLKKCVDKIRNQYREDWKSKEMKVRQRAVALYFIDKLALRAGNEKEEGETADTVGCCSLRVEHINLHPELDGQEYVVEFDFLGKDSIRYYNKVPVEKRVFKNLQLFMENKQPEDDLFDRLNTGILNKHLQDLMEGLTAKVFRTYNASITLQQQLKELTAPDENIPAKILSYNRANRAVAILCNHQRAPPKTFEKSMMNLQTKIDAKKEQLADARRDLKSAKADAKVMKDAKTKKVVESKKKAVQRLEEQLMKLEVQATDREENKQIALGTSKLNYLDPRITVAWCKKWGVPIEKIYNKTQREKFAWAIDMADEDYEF
# From the text: Topoisomerase I introduces a nick in the DNA backbone allowing the rotation of one DNA strand around the second DNA strand. The DNA break is extremely transient and is re-ligated almost immediately. When an inhibitor of Topoisomerase I is present, it binds to the Topoisomerase I-nicked DNA complex or to the Topoisomerase I itself and this prevents the re-ligation of the nicked strand or the initial nick and rotation, respectively. Topoisomerase I and II activities are required for Epstein-Barr Virus replication.
# [3] = test system: FB: normal human skin fibroblasts; test: DNA ladder analysis (apoptosis), normal FB cells; assay type: cell-based; settings: summary statements
# Procedure: FIG. 7. is a gel micrograph showing the DNA ladder effect (induction of apoptosis) of different compositions. MoFir and normal FB cells were incubated with C. gileadensis extract (2.5 μl/mL) for 24 h. DNA was separated and analyzed on agarose gel. Lane 1 and 2, ethanol based stem extract Lane 3-5, ethanol based leaf extract. Lane 6 control cells treated with ethanol (0.05%).
# DNA ladder analysis was performed as previously described Ofir R. et al., (1999) (Ofir R, Zhang L-, Adams J M. Interference with gene expression induces rapid apoptosisin p53-null T lymphoma cells. Cell Death and Differentiation 1999; 6: 1216-1221).
# [4] = test system: EBV-producing B95-8 cells; test: Survival of EBV-producing B95-8 cells; assay type: cell-based; settings: increasing concentration
# From the text: Epstein-Barr virus strain B95-8 can immortalize human B lymphocytes. B95-8 is a cell line that produces Epstein-Barr virus (EBV).
# [5] = molecular target: cannabinoid receptor type-1 (CB 1) (Homo sapiens, UniProt P21554); settings: background statement; cited from earlier work
# Chain of cannabinoid receptor type-1 (CB 1) (P21554 whole entry, species assumed): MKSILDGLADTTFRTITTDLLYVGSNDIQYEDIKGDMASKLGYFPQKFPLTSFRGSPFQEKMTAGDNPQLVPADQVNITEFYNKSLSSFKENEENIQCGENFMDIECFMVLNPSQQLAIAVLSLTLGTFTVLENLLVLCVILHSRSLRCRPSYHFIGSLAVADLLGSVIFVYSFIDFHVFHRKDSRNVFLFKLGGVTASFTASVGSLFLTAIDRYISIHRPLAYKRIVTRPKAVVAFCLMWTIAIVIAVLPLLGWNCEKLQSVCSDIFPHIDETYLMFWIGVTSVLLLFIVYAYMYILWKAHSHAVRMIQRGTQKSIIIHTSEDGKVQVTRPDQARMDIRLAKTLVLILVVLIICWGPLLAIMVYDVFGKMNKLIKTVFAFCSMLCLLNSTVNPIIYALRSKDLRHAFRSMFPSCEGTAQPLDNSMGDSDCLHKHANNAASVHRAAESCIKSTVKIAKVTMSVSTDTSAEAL
# [6] = test system: MoFir: Epstein-Barr virus transformed human B lymphocytes; test: Cell death / anti-proliferative assay (MTT/XTT) in MoFir cells; assay type: cell-based; settings: 4.8e^−4 μM, 2 h
# Procedure: (§1) The following cell lines were used in this study: (1) BS-24-1: mouse lymphoma cell; (2) MoFir: Epstein-Barr virus transformed human B lymphocytes generated in the laboratory by transformation of human B cell from an anonymous donor (see below); (3) FB: normal human skin fibroblasts.
# To establish the MoFir cells, B cells from whole blood were prepared by Ficoll -Hypaque density gradient centrifugation. The cells were infected with the B95-8 strain of Epstein-Barr virus. RPMI medium (Biological Industries Beit Haemek) was used for cell culture. The EBV B lymphocyte cell line was maintained in RPMI supplemented with 10% FBS, 100 U/mL penicillin and […] streptomycin. The culture was maintained at 37° C. in 5% CO2 atmosphere. […]
# (§2) Cell death was assessed by incubation of cells with tetrazolium salt XTT. The production of formazan can be monitored using an ELISA reader at a wavelength of 450 nm. Cytotoxicity in compound-treated culture was expressed as follows: % survival=100×(absorbance of compound-treated cell/absorbance of ethanol-treated cells).
# In order to investigate whether C. gikadensis extracts had anti-proliferative effects against tumor cell lines, an MTT (3-(4,5-Dimethylthiazol-2-yl)-2,5-diphenyltetrazolium bromide) assay was used. The effect of this extract was assessed in mouse (BS-24-1) and human (MoFir) cell lines using ethanol (EtOH)-based stem extracts. […]
# [7] = molecular target: cannabinoid receptor type-2 (Homo sapiens, UniProt P34972); settings: background statement; cited from earlier work
# Chain of cannabinoid receptor type-2 (P34972 whole entry): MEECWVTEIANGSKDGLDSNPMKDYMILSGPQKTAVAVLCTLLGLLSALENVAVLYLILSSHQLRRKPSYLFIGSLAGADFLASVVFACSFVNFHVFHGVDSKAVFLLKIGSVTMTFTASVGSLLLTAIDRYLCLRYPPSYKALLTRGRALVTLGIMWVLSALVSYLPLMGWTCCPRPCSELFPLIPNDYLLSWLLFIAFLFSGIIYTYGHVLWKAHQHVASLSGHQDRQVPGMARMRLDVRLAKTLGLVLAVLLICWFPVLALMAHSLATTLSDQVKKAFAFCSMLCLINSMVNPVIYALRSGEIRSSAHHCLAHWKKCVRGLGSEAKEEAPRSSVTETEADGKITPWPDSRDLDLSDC
# [8] = test system: BS-24-1: mouse lymphoma cell; test: Cell death / anti-proliferative assay (MTT/XTT) in BS-24-1 cells; assay type: cell-based; settings: BS-24-1, 4.8e^−4 μM, 2 h
# Procedure: as §1, §2
# In order to investigate whether C. gikadensis extracts had anti-proliferative effects against tumor cell lines, an MTT (3-(4,5-Dimethylthiazol-2-yl)-2,5-diphenyltetrazolium bromide) assay was used. The effect of this extract was assessed in mouse (BS-24-1) and human (MoFir) cell lines using ethanol (EtOH)-based stem extracts. The concentration of cells was 1.0×10^6/mL.
# BS-24-1 cells = test: DNA ladder analysis (apoptosis), BS-24-1 cells; assay type: cell-based, mouse; settings: BS-24-1, 2-h treatment
# Procedure: FIG. 6. is a gel micrograph showing the DNA ladder effect (induction of apoptosis) of different compositions. BS-24-1 cells (1,000,000/mL) were incubated with C. gileadensis stem and leaf extracts (6 μl/mL) for 17 h. DNA was separated and analyzed on agarose gel. Lanes 1-7 and 11, H2O based stem extract. Lanes 8-10, H2O based leaf extract. Lanes 12-18 and 22, ethanol based stem extract. Lanes 19-21, ethanol based leaf extract. Lanes 23 and 24 Control cells treated with ethanol (0.05%) and water.
# FIG. 8. is a gel micrograph showing the DNA ladder effect (induction of apoptosis) of different compositions. BS-24-1 cells were incubated with C. gileadensis essential oil for 24 h. DNA was separated and analyzed on agarose gel. Lane 1, untreated cells with ethanol (0.05%) alone. Lane 2, cells incubation with 0.625 μl/mL essential oil. Lane 3, cells incubation with 1.25 μl/mL essential oil.
# FIG. 9. is a gel micrograph showing the DNA ladder effect (induction of apoptosis) of β-Caryophyllene. Fragmentation of DNA in the presence of β-Caryophyllene. BS-24-1 cells were incubated in the presence of β-Caryophyllene in three different concentrations and two incubation time Lane 1, untreated cells with ethanol (0.05%) alone. Lane 2, cells incubated for 24 h with […] Lane 3, cells incubated for 2 h with 9.6 μM β-caryophyllene. […]
Molecule,"beta-caryophyllene induced increase of caspase-3 activity after inhibitor pretreatment (caspase-3 [1]; pretreatment with inhibitor (0.05 μM, 10 minutes))","beta-caryophyllene induced increase of caspase-3 activity after inhibitor pretreatment (caspase-3 [2]; BS-24-1, pretreatment with inhibitor (0.05 μM, 10 minutes))","EBV-induced death, viremia, leukocytosis, IFN-γ cytokinenemia, normocytic anemia, and thrombocytopenia (Epstein-Barr virus)",survival time (Epstein-Barr virus),activity of Topoisomerase I (Topoisomerase I),enzymatic activity of caspase-3 (caspase-3 [1]; 2.4e^−4 μM),apoptosis induction in normal cells (FB) [3],survival of EBV-producing B95-8 cells [4],binding to cannabinoid receptor type-1 (CB 1) [5],cell killing [6],"enzymatic activity of caspase-3 (caspase-3 [2]; BS-24-1, 2.4e^−4 μM, 4 h incubation)","induction of caspase-3 enzymatic activity compared to reference compounds STS and citral (caspase-3 [2]; data not shown, cell line not stated)",binding to cannabinoid receptor type-2 [7],cell killing [8],DNA ladder (DNA fragmentation) (BS-24-1 cells)
Ac-DEVD-CHO [reference compound],blocked,blocked,–,–,–,–,–,–,–,–,–,–,–,–,–
"C=C1CC/C=C(\C)CC[C@@H]2[C@@H]1CC2(C)C [Beta-caryophyllene, trans-(1R,9S)-8-Methylene-4,11,11-trimethylbicyclo[7.2.0]undec-4-ene]",–,–,prevent,increase,inhibits,activation of the enzymatic activity of caspase-3,not in normal cells,decreases the survival,does not bind,85-90%,activation of the enzymatic activity of caspase-3,stronger than both,selectively bind,85-90%,repeated
